According to article PMC5453931, “Cathelicidin-trypsin inhibitor loop conjugate represents a promising antibiotic candidate with protease stability” (Scientific Reports, 2017):
In brackets after ≈: the same amount, converted by molar mass. Where a SMILES comes first, the peptide text is derived from it.

Key:
[1] = 20% fresh human serum, 37 °C, colonies surviving 1 × MIC, Fig. 3B
trypsin or proteinase K = conditions: peptide:protease 300/1 mol/mol, 30 min, 37 °C, then 1 × MIC 2 h with E. coli, S. aureus, C. albicans; colony counting; Fig. 3E
E. coli 08040726 = type: cell-based; conditions: 08040726, 18 h
Outline: (§1)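 Growth at A595 after 18 h at 37 °C defines the MIC, taken as the minimal peptide concentration giving no microbial growth. Organisms were grown to exponential phase in Mueller-Hinton broth and diluted to 10^6 CFU/mL prior to combining with an equal volume of peptide dilutions.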

C. albican = type: cell-based; conditions: 18 h
Outline: as §1

S. aureus = type: cell-based; conditions: 18 h
Outline: as §1

E. coli = type: cell-based; conditions: 18 h
Outline: as §1

B. subtilis = type: cell-based; conditions: 18 h
Outline: as §1

P. mirabilis = type: cell-based; conditions: 18 h
Outline: as §1

S. dysenteria = type: cell-based; conditions: two-fold broth microdilution, MH broth, 37 °C, 18 h, A595; mean of three independent experiments in duplicate
Outline: as §1

P. aeruginosa = type: cell-based; conditions: 18 h
Outline: as §1

[2] = tested on: Nocardia asteroides 08052412; assay: microbe, parasite or virus in culture; type: cell-based; conditions: 18 h
Outline: as §1

[3] = tested on: Shigella dysenteriae 0804203; assay: microbe, parasite or virus in culture; type: cell-based; conditions: Gram-negative; two-fold broth microdilution, MH broth, 37 °C, 18 h; mean of three independent experiments in duplicates
Outline: as §1

S. Aureus 08032615 = assay: microbe, parasite or virus in culture; type: cell-based; conditions: 08032615, 18 h
Outline: as §1

[4] = tested on: Candida albicans 08030102; assay: microbe, parasite or virus in culture; type: cell-based; conditions: 08030102, 18 h
Outline: as §1

S. Aureus 08032706 = assay: microbe, parasite or virus in culture; type: cell-based; conditions: 08032706, 18 h
Outline: as §1

E. Coli 08032823 = assay: microbe, parasite or virus in culture; type: cell-based; conditions: 08032823, 18 h
Outline: as §1

Vibrio harveyi = assay: microbe, parasite or virus in culture; type: cell-based; conditions: 18 h
Outline: as §1

S. Maltophilia 090223 = assay: microbe, parasite or virus in culture; type: cell-based; conditions: 090223, 18 h
Outline: as §1

[5] = tested on: Bacillus subtilis 08042313; assay: microbe, parasite or virus in culture; type: cell-based; conditions: 08042313, 18 h
Outline: as §1

[6] = tested on: Escherichia coli ATCC25922; assay: microbe, parasite or virus in culture; type: cell-based; conditions: ATCC25922, 18 h
Outline: as §1

P. Aeruginosa 08021015 = assay: microbe, parasite or virus in culture; type: cell-based; conditions: 08021015, 18 h
Outline: as §1

Aeromonas veronii = assay: microbe, parasite or virus in culture; type: cell-based; conditions: 18 h
Outline: as §1

Proteus mirabilis 1376 = assay: microbe, parasite or virus in culture; type: cell-based; conditions: 1376, 18 h
Outline: as §1

K. Pneumoniae 08040202 = assay: microbe, parasite or virus in culture; type: cell-based; conditions: 08040202, 18 h
Outline: as §1

K. Pneumoniae 08031012 = assay: microbe, parasite or virus in culture; type: cell-based; conditions: 08031012, 18 h
Outline: as §1

[7] = tested on: Enterococcus faecium 08052315; assay: microbe, parasite or virus in culture; type: cell-based; conditions: 08052315, 18 h
Outline: as §1

S. Aureus 08032810 = assay: microbe, parasite or virus in culture; type: cell-based; conditions: 08032810, 18 h
Outline: as §1

trypsin = assay: Protease stability, RP-HPLC analysis of degradation; type: in vitro ADME; conditions: trypsin, 300:1, 0.1 M NH4HCO3 pH 8.2, 37 °C, 6 h; RP-HPLC; Fig. 4
Protocol: To further examine the stability of TIH3F incubated with enzymes (trypsin and protease K) over time, the LC analysis of peptide degradation over a series of time spans (0, 6, 12, 24 h) was performed. TIH3F and protease solution were prepared in 0.1 M NH4HCO3 buffer (pH 8.2) to final molar ratio of 300:1, and incubated at 37 °C for 6, 12, and 24 h, respectively. Then 150 μL aliquots were taken at given time intervals, diluted with 150 μL of water/acetonitrile (60/40 v/v) containing 2% TFA, and analyzed by RP-HPLC (Thermo Scientific Syncronis C18 column, 250 mm × 4.6 mm, 5 μm), eluted with acetonitrile/water (containing 0.1% TFA) mixture of linear gradient concentration.

CC(C)C[C@H](NC(=O)[C@H](CCCNC(=N)N)NC(=O)[C@H](CCCCN)NC(=O)[C@H](Cc1ccccc1)NC(=O)[C@H](Cc1ccccc1)NC(=O)[C@@H](N)CCCCN)C(=O)N[C@@H](CC(C)C)C(=O)N[C@@H](CCCCN)C(=O)N[C@@H](CO)C(=O)N[C@H](C(=O)N[C@@H](CCCNC(=N)N)C(=O)N[C@@H](CCCNC(=N)N)C(=O)N[C@@H](C)C(=O)N[C@H](C(=O)N[C@@H](CCCCN)C(=O)N[C@@H](CCCCN)C(=O)N[C@@H](Cc1ccccc1)C(N)=O)C(C)C)C(C)C [Hc3] (H-KFFKRLLKSVRRAVKKF-NH2)
bactericidal ability after incubation with human serum ([1]; 3 h): dropped more than half | kill (%) after incubation with human serum ([1]; 6 h): almost diminished | kill (%) / antimicrobial activity kept after incubation with human serum ([1]; 36 h): lost its bacterial inhibitory activity | antimicrobial activity after treatment with trypsin or proteinase K (trypsin or proteinase K): almost lost its bactericidal ability | MIC E. coli 08040726 (E. coli 08040726): 37.5 µg/mL (≈ 17.4 µM) | MIC C. albican (C. albican): 9.38 µg/mL (≈ 4.36 µM) | MIC S. aureus (S. aureus): 9.38 µg/mL (≈ 4.36 µM) | MIC E. coli (E. coli): 18.75 µg/mL (≈ 8.72 µM) | MIC B. subtilis (B. subtilis): 9.38 µg/mL (≈ 4.36 µM) | MIC P. mirabilis (P. mirabilis): 4.68 µg/mL (≈ 2.18 µM) | MIC S. dysenteria (S. dysenteria): 2.34 µg/mL (≈ 1.09 µM) | MIC P. aeruginosa (P. aeruginosa): 9.38 µg/mL (≈ 4.36 µM) | MIC Nocardia asteroides 08052412 [2]: 4.69 µg/mL (≈ 2.18 µM) | MIC Shigella dysenteriae 0804203 [3]: 2.34 µg/mL (≈ 1.09 µM) | MIC S. Aureus 08032615 (S. Aureus 08032615): 9.38 µg/mL (≈ 4.36 µM) | MIC Candida albicans 08030102 [4]: 9.38 µg/mL (≈ 4.36 µM) | MIC S. Aureus 08032706 (S. Aureus 08032706): 75 µg/mL (≈ 34.9 µM) | MIC E. Coli 08032823 (E. Coli 08032823): 9.38 µg/mL (≈ 4.36 µM) | MIC Vibrio harveyi (Vibrio harveyi): 18.75 µg/mL (≈ 8.72 µM) | MIC S. Maltophilia 090223 (S. Maltophilia 090223): 9.38 µg/mL (≈ 4.36 µM) | MIC Bacillus subtilis 08042313 [5]: 9.38 µg/mL (≈ 4.36 µM) | MIC Escherichia coli ATCC25922 [6]: 18.75 µg/mL (≈ 8.72 µM) | MIC P. Aeruginosa 08021015 (P. Aeruginosa 08021015): 9.38 µg/mL (≈ 4.36 µM) | MIC Aeromonas veronii (Aeromonas veronii): 9.38 µg/mL (≈ 4.36 µM) | MIC Proteus mirabilis 1376 (Proteus mirabilis 1376): 4.68 µg/mL (≈ 2.18 µM) | MIC K. Pneumoniae 08040202 (K. Pneumoniae 08040202): 75 µg/mL (≈ 34.9 µM) | MIC K. Pneumoniae 08031012 (K. Pneumoniae 08031012): 75 µg/mL (≈ 34.9 µM) | MIC Enterococcus faecium 08052315 [7]: 9.38 µg/mL (≈ 4.36 µM) | MIC S. Aureus 08032810 (S. Aureus 08032810): 75 µg/mL (≈ 34.9 µM) | degradation by trypsin (trypsin): the majority of which was rapidly digested
